Legend:
[1] = LPS binding assay (coated wells); parameters: species or system E. coli
Description: K. pneumoniae (3×10^5 CFU/well), E. coli O111:B4 smooth-type LPS (5 μg/well), or bovine serum albumin (BSA, 5 μg/well) in 100 μL of bicarbonate buffer (pH 9.6) were coated onto wells of high-binding microtiter plate (Corning Costar, Cambridge, Mass.). Nonspecific binding was blocked with binding buffer (20 mM Tris-HCl, pH 7.4, 0.15 M NaCl, 5 mM CaCl2) containing 50 mg/mL BSA. Various concentrations of rTMD proteins without or with CD14 (10 μg/mL; R&D Systems) in binding buffer containing 1 mg/mL BSA were added to wells and incubated for 2 hours. In some experiments, 0.2 M mannose, 5 mM EDTA, or Le^y were included in the binding buffer to compete with LPS and rTMD1 binding. Antibody against the c-Myc epitope of the rTMD proteins was added to wells and incubated for 2 hours, and peroxidase-labeled secondary antibody followed. Binding of rTMD proteins was detected by measuring absorbance at 450 nm.

[2] = target: T1, rTMD1 (Homo sapiens, UniProt P07204); test: rTMD1 ligand analysis (AlphaScreen); format: binding; settings: mammalian- or Pichia-expressed rTMD1
T1 construct: TMD1 (residues Ala^1-Ala^155); made in house
T1 sequence (P07204 19-173): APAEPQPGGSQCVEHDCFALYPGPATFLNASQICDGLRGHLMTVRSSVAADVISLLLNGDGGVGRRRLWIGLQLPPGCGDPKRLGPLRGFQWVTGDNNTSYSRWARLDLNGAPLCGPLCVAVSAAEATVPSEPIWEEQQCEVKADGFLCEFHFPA
Description: Biotin-polyacrylamide (Biotin-PAA)-sugars (GlycoTech, Rockville, Mass.), rTMD1, rabbit anti-mouse IgG antibody (Zymed), mouse anti-6× His tag antibody (Abcam, Cambridge, UK), and streptavidin-coated donor and protein A conjugated acceptor beads (PerkinElmer, Boston, Mass.) were diluted with assay buffer containing 25 mM Tris (pH 7.0), 25 mM CaCl2, and 1 mg/mL BSA to appropriate concentrations. The anti-6× His tag antibody, rabbit anti-mouse IgG antibody, and acceptor beads were incubated with assay buffer for 1 hour at 25° C. before use (as the acceptor mixture). Biotin-PAA-sugars, rTMD1, and donor beads were separately added to wells of ProxiPlate-384 assay plates (PerkinElmer) and incubated at 25° C. for 1 hour. An aliquot of the acceptor mixture was then added to the wells and incubated at 25° C. for another 2 hours. The results were read on a PerkinElmer Envision instrument using the AlphaScreen program. All the procedures and incubations were carried out in the dark.

[3] = tested on: rTMD1; test: Effect of Le^y on the blocking effect of rTMD1 on LPS-induced signaling pathways (Western blot); format: cell-based; settings: rTMD1 20 μg/mL, LPS 100 ng/mL
Description: rTMD1 (0-50 μg/mL, equals 0-2.18 nmole/mL) pre-incubated without or with Escherichia coli (E. coli) LPS (LPS O111:B4, Sigma-Aldrich) in the absence or presence of Lewis Y (Le^y; Dextra Laboratories, Reading, UK) for 30 minutes was used to stimulate THP-1 or RAW 264.7 cells. Incubation period included 15 minutes for pIκB and IκB (B-9 and C-21, Santa Cruz Biotechnology, Santa Cruz, Calif., unless otherwise noted), 20 minutes for p38 (C-20) and pp38 (D-8), 30 minutes for ERK1/2 (K-23), pERK1/2 (E-4), lamin B2 (E-3, Zymed Laboratories, San Francisco, Calif.), NF-κB p50 (C-19) and NF-κB p65 nuclear translocation (C-20), and 24 hours for iNOS expression using a specific antibody (N-20).

[4] = target: T2, HMGB1 and rTMD1 interaction (Homo sapiens, UniProt P07204); test: Effect of Le^y on the binding of HMGB1 with rTMD1
T2 construct: TMD1 (residues Ala^1-Ala^155); 6xHis (C); enterokinase cutting site (internal); made in house
T2 sequence (P07204 19-173): as above
T2 sequence (P09429 whole entry partner): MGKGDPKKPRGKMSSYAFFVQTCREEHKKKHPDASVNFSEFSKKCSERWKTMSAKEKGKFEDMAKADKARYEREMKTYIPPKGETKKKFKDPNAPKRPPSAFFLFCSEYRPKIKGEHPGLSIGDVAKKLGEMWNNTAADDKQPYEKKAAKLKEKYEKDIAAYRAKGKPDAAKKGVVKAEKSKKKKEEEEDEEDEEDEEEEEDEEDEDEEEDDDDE

[5] = tested on: K. pneumoniae; test: Bacterial agglutination, FITC-labeled K. pneumoniae; settings: 0.2 M mannose or 5 mM EDTA
Description: (§1) K. pneumoniae and E. coli DH5α (BCRC) were washed twice in 0.1 M sodium bicarbonate buffer (pH 9.6) and incubated with 0.1 mg/mL fluorescein isothiocyanate (FITC) at 37° C. in the dark. Each of 20 μg/mL of rTMD1, non-tagged rTMD1, mammalian rTMD1, and recombinant TM domains 2 and 3 (rTMD23) was co-incubated with FITC-labeled bacteria (1×10^5CFU/mL) in buffer (20 mM Tris, pH 7.4, 0.15 M NaCl, 5 mM CaCl2, 1 mg/mL BSA) with or without 0.2 M mannose or 5 mM EDTA. Samples were individually placed on a glass slide and fluorescently-labeled bacteria were observed microscopically to evaluate agglutination.

[6] = tested on: E. coli DH5α; test: Bacterial agglutination, FITC-labeled E. coli DH5α; settings: 0.2 M mannose or 5 mM EDTA
Description: as §1

Compound | effect on binding of rTMD1 with LPS ([1]; various concentrations of Le^y, FIG. 6B) | rTMD1 affinity of carbohydrate ligand [2] | effect on blocking effects of rTMD1 on LPS-induced ERK1/2 phosphorylation, IκBα degradation, and NF-κB p50 and p65 nuclear translocation [3] | effect on HMGB1 and rTMD1 interaction [4] | effect on binding of rTMD1 to LPS ([1]; 0.2 M mannose or 5 mM EDTA, rTMD1 50 μg/mL) | effect on rTMD1 agglutination activity, K. pneumoniae [5] | effect on rTMD1 agglutination activity, E. coli DH5α [6]
Fucα1-2Galβ1-4(Fucα1-3)GlcNAc [Le^y] | specifically inhibited | specific ligand | dose-dependently neutralize | could not abrogate |  |  | 
O=C(O)CN(CCN(CC(=O)O)CC(=O)O)CC(=O)O [EDTA, reference compound] |  |  |  |  | inhibited | attenuated | attenuated

Source: patent US20120165244A1, “METHODS FOR BINDING LEWIS Y ANTIGEN” (priority 2008, published 2012)
